Test results from patent publication US4479943A, “3-Demethoxyistamycin B, the 2"-N-formimidoyl derivative thereof and pharmaceutical composition containing same” (Zaidan Hojin Biseibutsu Kagaku Kenkyu Kai, priority 1982, dated 1984).
Values after ≈ are worked out from the molar mass of the structure shown.

Tests used:
[1] = test system: Shigella dysenteriae JS11910; experiment: Antibacterial MIC, standard serial dilution; type: cell-based; details: nutrient agar, 37° C., 17 hours, as free base
[2] = test system: Escherichia coli JR66/W677; experiment: Antibacterial MIC, standard serial dilution; type: cell-based; details: nutrient agar, 37° C., 17 hours, as free base
[3] = test system: Escherichia coli K-12; experiment: Antibacterial MIC, standard serial dilution; type: cell-based; details: nutrient agar, 37° C., 17 hours, as free base
[4] = test system: Pseudomonas aeruginosa B-13; experiment: Antibacterial MIC, standard serial dilution; type: cell-based; details: nutrient agar, 37° C., 17 hours, as free base
[5] = test system: Escherichia coli K-12 LA290 R56; experiment: Antibacterial MIC, standard serial dilution; type: cell-based; details: nutrient agar, 37° C., 17 hours, as free base
[6] = test system: Pseudomonas aeruginosa 21-75; experiment: Antibacterial MIC, standard serial dilution; type: cell-based; details: nutrient agar, 37° C., 17 hours, as free base
[7] = test system: Pseudomonas aeruginosa No. 12; experiment: Antibacterial MIC, standard serial dilution; type: cell-based; details: nutrient agar, 37° C., 17 hours, as free base
[8] = test system: Staphylococcus aureus Ap01; experiment: Antibacterial MIC, standard serial dilution; type: cell-based; details: nutrient agar, 37° C., 17 hours, as free base
[9] = test system: Proteus vulgaris 0X19; experiment: Antibacterial MIC, standard serial dilution; type: cell-based; details: nutrient agar, 37° C., 17 hours, as free base
[10] = test system: Pseudomonas aeruginosa PST1; experiment: Antibacterial MIC, standard serial dilution; type: cell-based; details: nutrient agar, 37° C., 17 hours, as free base
[11] = test system: Staphylococcus aureus FDA 209P; experiment: Antibacterial MIC, standard serial dilution; type: cell-based; details: nutrient agar, 37° C., 17 hours, as free base
[12] = test system: Pseudomonas aeruginosa ROS 134/PU21; experiment: Antibacterial MIC, standard serial dilution; type: cell-based; details: nutrient agar, 37° C., 17 hours, as free base
[13] = test system: Serratia marcescens; experiment: Antibacterial MIC, standard serial dilution; type: cell-based; details: nutrient agar, 37° C., 17 hours, as free base
[14] = test system: Providencia sp. Pv16; experiment: Antibacterial MIC, standard serial dilution; type: cell-based; details: nutrient agar, 37° C., 17 hours, as free base
[15] = test system: bacteria; details: in words; earlier work; cited from earlier work
[16] = test system: Serratia sp. 4; experiment: Antibacterial MIC, standard serial dilution; type: cell-based; details: nutrient agar, 37° C., 17 hours, as free base
[17] = test system: Bacillus subtilis NRRL B-558; experiment: Antibacterial MIC, standard serial dilution; type: cell-based; details: nutrient agar, 37° C., 17 hours, as free base
[18] = test system: Escherichia coli JR225; experiment: Antibacterial MIC, standard serial dilution; type: cell-based; details: nutrient agar, 37° C., 17 hours, as free base
[19] = test system: Salmonella typhi T-63; experiment: Antibacterial MIC, standard serial dilution; type: cell-based; details: nutrient agar, 37° C., 17 hours, as free base
[20] = test system: Pseudomonas aeruginosa A3; experiment: Antibacterial MIC, standard serial dilution; type: cell-based; details: nutrient agar, 37° C., 17 hours, as free base
[21] = test system: Klebsiella pneumoniae PCI602; experiment: Antibacterial MIC, standard serial dilution; type: cell-based; details: nutrient agar, 37° C., 17 hours, as free base
[22] = test system: Proteus rettgeri GN466; experiment: Antibacterial MIC, standard serial dilution; type: cell-based; details: nutrient agar, 37° C., 17 hours, as free base
[23] = test system: Corynebacterium bovis 1810; experiment: Antibacterial MIC, standard serial dilution; type: cell-based; details: nutrient agar, 37° C., 17 hours, as free base
[24] = test system: Pseudomonas aeruginosa TI-13; experiment: Antibacterial MIC, standard serial dilution; type: cell-based; details: nutrient agar, 37° C., 17 hours, as free base
[25] = test system: Bacillus anthracis; type: cell-based; details: nutrient agar, 37° C., 17 hours, as free base
[26] = test system: Salmonella enteritidis 1891; experiment: Antibacterial MIC, standard serial dilution; type: cell-based; details: nutrient agar, 37° C., 17 hours, as free base
[27] = test system: Staphylococcus aureus Smith; experiment: Antibacterial MIC, standard serial dilution; type: cell-based; details: nutrient agar, 37° C., 17 hours, as free base
[28] = test system: Klebsiella pneumoniae 22#3038; experiment: Antibacterial MIC, standard serial dilution; type: cell-based; details: nutrient agar, 37° C., 17 hours, as free base
[29] = test system: Mycobacterium smegmatis ATCC 607; experiment: Antibacterial MIC, standard serial dilution; type: cell-based; details: nutrient agar, 37° C., 17 hours, as free base
[30] = test system: Sarcina lutea PCI 1001; experiment: Antibacterial MIC, standard serial dilution; type: cell-based; details: nutrient agar, 37° C., 17 hours, as free base
[31] = test system: Escherichia coli K-12 R388; experiment: Antibacterial MIC, standard serial dilution; type: cell-based; details: nutrient agar, 37° C., 17 hours, as free base
[32] = test system: Pseudomonas aeruginosa GN315; experiment: Antibacterial MIC, standard serial dilution; type: cell-based; details: nutrient agar, 37° C., 17 hours, as free base
[33] = test system: Serratia sp. SOU; experiment: Antibacterial MIC, standard serial dilution; type: cell-based; details: nutrient agar, 37° C., 17 hours, as free base
[34] = test system: Proteus rettgeri GN311; experiment: Antibacterial MIC, standard serial dilution; type: cell-based; details: nutrient agar, 37° C., 17 hours, as free base
[35] = test system: Pseudomonas aeruginosa H9; experiment: Antibacterial MIC, standard serial dilution; type: cell-based; details: nutrient agar, 37° C., 17 hours, as free base
[36] = test system: Pseudomonas maltophilia GN 907; experiment: Antibacterial MIC, standard serial dilution; type: cell-based; details: nutrient agar, 37° C., 17 hours, as free base
[37] = test system: Escherichia coli K-12 J5R11-2; experiment: Antibacterial MIC, standard serial dilution; type: cell-based; details: nutrient agar, 37° C., 17 hours, as free base
[38] = test system: Staphylococcus epidermidis 109; experiment: Antibacterial MIC, standard serial dilution; type: cell-based; details: nutrient agar, 37° C., 17 hours, as free base
[39] = test system: Providencia sp. 2991; experiment: Antibacterial MIC, standard serial dilution; type: cell-based; details: nutrient agar, 37° C., 17 hours, as free base
[40] = test system: Escherichia coli K-12 ML1630; experiment: Antibacterial MIC, standard serial dilution; type: cell-based; details: nutrient agar, 37° C., 17 hours, as free base
[41] = test system: Escherichia coli W677; experiment: Antibacterial MIC, standard serial dilution; type: cell-based; details: nutrient agar, 37° C., 17 hours, as free base
[42] = test system: Escherichia coli NIHJ; experiment: Antibacterial MIC, standard serial dilution; type: cell-based; details: nutrient agar, 37° C., 17 hours, as free base
[43] = test system: Bacillus cereus ATCC 10702; experiment: Antibacterial MIC, standard serial dilution; type: cell-based; details: nutrient agar, 37° C., 17 hours, as free base
[44] = test system: Escherichia coli K-12 ML1629; experiment: Antibacterial MIC, standard serial dilution; type: cell-based; details: nutrient agar, 37° C., 17 hours, as free base
[45] = test system: Escherichia coli K-12 LA290 R55; experiment: Antibacterial MIC, standard serial dilution; type: cell-based; details: nutrient agar, 37° C., 17 hours, as free base
[46] = test system: Pseudomonas aeruginosa 99; experiment: Antibacterial MIC, standard serial dilution; type: cell-based; details: nutrient agar, 37° C., 17 hours, as free base
[47] = test system: Bacillus subtilis PCI 219; experiment: Antibacterial MIC, standard serial dilution; type: cell-based; details: nutrient agar, 37° C., 17 hours, as free base
[48] = test system: Pseudomonas aeruginosa H11; experiment: Antibacterial MIC, standard serial dilution; type: cell-based; details: nutrient agar, 37° C., 17 hours, as free base
[49] = test system: Escherichia coli K-12 ML1410; experiment: Antibacterial MIC, standard serial dilution; type: cell-based; details: nutrient agar, 37° C., 17 hours, as free base
[50] = test system: Micrococcus flavus FDA 16; experiment: Antibacterial MIC, standard serial dilution; type: cell-based; details: nutrient agar, 37° C., 17 hours, as free base
[51] = test system: Escherichia coli K-12 R5; experiment: Antibacterial MIC, standard serial dilution; type: cell-based; details: nutrient agar, 37° C., 17 hours, as free base
[52] = test system: Pseudomonas aeruginosa K-Ps 102; experiment: Antibacterial MIC, standard serial dilution; type: cell-based; details: nutrient agar, 37° C., 17 hours, as free base

`CNCC1CCC(N)C(OC2C(N)CC(O)C(N(C)C(=O)CNC=N)C2O)O1` (stereo not shown) [Demethyl formimidoyl ista B, 3-O-demethyl-2"-N-formimidoylistamycin B] gave an MIC [1] of 1.56 µg/mL (≈ 3.88 µM), an MIC [2] of 1.56 µg/mL (≈ 3.88 µM) and an MIC [3] of 0.78 µg/mL (≈ 1.94 µM). For the same compound, the MIC [4] was 100 µg/mL (≈ 248 µM), the MIC [5] was 0.78 µg/mL (≈ 1.94 µM) and the MIC [6] was 25 µg/mL (≈ 62.1 µM). It also gave an MIC [7] of 12.5 µg/mL (≈ 31.1 µM), an MIC [8] of 0.39 µg/mL (≈ 0.969 µM) and an MIC [9] of 0.39 µg/mL (≈ 0.969 µM). For the same compound, the MIC [10] was 25 µg/mL (≈ 62.1 µM), the MIC [11] was 0.39 µg/mL (≈ 0.969 µM) and the MIC [12] was 100 µg/mL (≈ 248 µM). The MIC [13] was 1.56 µg/mL (≈ 3.88 µM), the MIC [14] was 0.78 µg/mL (≈ 1.94 µM) and the antibacterial activity [15] was “active not only against Pseudomonas aeruginosa but also against a variety of resistant bacteria”. For the same compound, the MIC [16] was 12.5 µg/mL (≈ 31.1 µM), the MIC [17] was less than 0.20 µg/mL and the MIC [18] was 0.39 µg/mL (≈ 0.969 µM). It also gave an MIC [19] of less than 0.20 µg/mL, an MIC [20] of 0.20 µg/mL (≈ 0.497 µM) and an MIC [21] of 0.78 µg/mL (≈ 1.94 µM). It also gave an MIC [22] of 0.39 µg/mL (≈ 0.969 µM), an MIC [23] of less than 0.20 µg/mL and an MIC [24] of 12.5 µg/mL (≈ 31.1 µM). It also gave an MIC [25] of 0.39 µg/mL (≈ 0.969 µM), an MIC [26] of 1.56 µg/mL (≈ 3.88 µM) and an MIC [27] of less than 0.20 µg/mL. It also gave an MIC [28] of 1.56 µg/mL (≈ 3.88 µM), an MIC [29] of 0.39 µg/mL (≈ 0.969 µM) and an MIC [30] of 0.39 µg/mL (≈ 0.969 µM). The MIC [31] was 0.78 µg/mL (≈ 1.94 µM), the MIC [32] was 6.25 µg/mL (≈ 15.5 µM) and the MIC [33] was 12.5 µg/mL (≈ 31.1 µM). The MIC [34] was 0.39 µg/mL (≈ 0.969 µM), the MIC [35] was 12.5 µg/mL (≈ 31.1 µM) and the MIC [36] was greater than 100 µg/mL. The MIC [37] was 1.56 µg/mL (≈ 3.88 µM), the MIC [38] was 0.20 µg/mL (≈ 0.497 µM) and the MIC [39] was 0.78 µg/mL (≈ 1.94 µM). The MIC [40] was 1.56 µg/mL (≈ 3.88 µM), the MIC [41] was 0.39 µg/mL (≈ 0.969 µM) and the MIC [42] was 0.39 µg/mL (≈ 0.969 µM). It also gave an MIC [43] of 0.78 µg/mL (≈ 1.94 µM), an MIC [44] of 0.78 µg/mL (≈ 1.94 µM) and an MIC [45] of 0.78 µg/mL (≈ 1.94 µM). It also gave an MIC [46] of 100 µg/mL (≈ 248 µM), an MIC [47] of 0.20 µg/mL (≈ 0.497 µM) and an MIC [48] of 25 µg/mL (≈ 62.1 µM). It also gave an MIC [49] of 1.56 µg/mL (≈ 3.88 µM), an MIC [50] of 0.39 µg/mL (≈ 0.969 µM) and an MIC [51] of 0.78 µg/mL (≈ 1.94 µM). For the same compound, the MIC [52] was 12.5 µg/mL (≈ 31.1 µM).
